Patent US8993608B2, “Method for inhibiting topoisomerase II” (Synta Pharmaceuticals Corp., priority 2007, dated 2015)

Columns and labels:
human topo II = human topo II (Homo sapiens, UniProt P11388); conditions: Gadelle et al., Biochemical Pharmacology (2006); cited from earlier work
topoisomerase II = target: T1, topoisomerase II (Homo sapiens, UniProt P11388); test: kDNA decatenation assay for inhibition of topoisomerase II; type: biochemical; conditions: 200 nM, lane 8 of FIG. 3
T1 construct: purchased TopoGEN, Inc
T1 sequence (P11388 whole entry): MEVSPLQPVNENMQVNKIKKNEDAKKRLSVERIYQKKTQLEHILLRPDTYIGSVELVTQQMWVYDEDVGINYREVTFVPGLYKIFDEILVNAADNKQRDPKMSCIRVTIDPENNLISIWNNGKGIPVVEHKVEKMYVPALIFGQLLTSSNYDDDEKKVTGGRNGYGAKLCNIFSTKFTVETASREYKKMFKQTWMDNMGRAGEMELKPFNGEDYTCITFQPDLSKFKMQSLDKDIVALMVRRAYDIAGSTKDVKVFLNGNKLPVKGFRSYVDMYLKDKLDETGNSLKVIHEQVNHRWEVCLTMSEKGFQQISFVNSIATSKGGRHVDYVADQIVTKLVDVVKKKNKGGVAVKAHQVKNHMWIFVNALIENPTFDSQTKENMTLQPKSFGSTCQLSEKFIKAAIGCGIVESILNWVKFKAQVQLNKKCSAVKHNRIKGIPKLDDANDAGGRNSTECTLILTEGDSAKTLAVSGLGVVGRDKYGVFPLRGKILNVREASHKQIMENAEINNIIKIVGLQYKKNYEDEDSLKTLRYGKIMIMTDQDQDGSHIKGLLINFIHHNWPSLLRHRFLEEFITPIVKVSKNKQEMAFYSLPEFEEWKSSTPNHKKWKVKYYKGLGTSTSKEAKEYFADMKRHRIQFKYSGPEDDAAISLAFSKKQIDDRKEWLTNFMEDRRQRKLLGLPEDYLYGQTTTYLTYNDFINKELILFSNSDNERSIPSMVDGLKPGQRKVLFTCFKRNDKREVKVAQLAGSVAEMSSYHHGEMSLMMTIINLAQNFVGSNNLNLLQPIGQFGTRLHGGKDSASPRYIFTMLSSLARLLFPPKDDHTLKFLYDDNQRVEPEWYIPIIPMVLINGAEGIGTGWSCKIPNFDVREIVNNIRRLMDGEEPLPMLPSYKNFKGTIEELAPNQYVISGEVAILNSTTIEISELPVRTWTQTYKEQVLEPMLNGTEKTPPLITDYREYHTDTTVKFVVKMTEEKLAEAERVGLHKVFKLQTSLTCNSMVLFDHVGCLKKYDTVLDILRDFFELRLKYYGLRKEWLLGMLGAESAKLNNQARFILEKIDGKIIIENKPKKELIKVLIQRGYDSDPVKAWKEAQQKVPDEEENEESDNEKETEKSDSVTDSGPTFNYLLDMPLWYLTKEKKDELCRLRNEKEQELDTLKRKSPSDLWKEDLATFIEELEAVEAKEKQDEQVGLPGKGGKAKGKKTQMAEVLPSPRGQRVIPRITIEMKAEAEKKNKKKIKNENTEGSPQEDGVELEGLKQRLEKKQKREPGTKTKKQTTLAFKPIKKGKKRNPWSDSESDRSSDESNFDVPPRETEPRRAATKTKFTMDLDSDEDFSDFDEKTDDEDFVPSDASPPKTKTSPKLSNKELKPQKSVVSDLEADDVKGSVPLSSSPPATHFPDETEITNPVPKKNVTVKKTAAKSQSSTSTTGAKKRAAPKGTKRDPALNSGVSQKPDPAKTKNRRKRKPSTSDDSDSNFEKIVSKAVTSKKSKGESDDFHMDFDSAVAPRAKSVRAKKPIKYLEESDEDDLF
Procedure: The ability of compounds of the invention to inhibit the activity of topoisomerase II was examined with a kDNA decatenation assay (TopoGEN, Inc. Port Orange, Fla.). Substrate kDNA was mixed with compounds and incubated at 37° C. for 30 min. The reaction was stop by adding ⅕ volume of stop buffer. 20 μl of the reaction was loaded on 1% agarose gel. Image of decatenation of kDNA by compounds was taken by Kodak Image Station 440.
In the presence of topoisomerase II, decatenated nicked and circular kDNAs are located at the bottom of the gel. […] Table 9 indicates the ability of compounds of the invention to inhibit the activity of topoisomease II.

Her2 = test: Degradation of Her2 in BT-474 cells after treatment (Method 1, SDS-PAGE/immunoblot); type: cell-based, Human; conditions: overnight
Procedure: Human high-Her2 breast carcinoma BT474 (HTB-20), SK-BR-3 (HTB-30) and MCF-7 breast carcinoma (HTB-22) from American Type Culture Collection, Va., USA were grown in Dulbecco's modified Eagle's medium with 4 mM L-glutamine and antibiotics (100 IU/ml penicillin and 100 ug/ml streptomycine;GibcoBRL). To obtain exponential cell growth, cells were trypsinized, counted and seeded at a cell density of 0.5×10^6 cells /ml regularly, every 3 days. All experiments were performed on day 1 after cell passage.
BT-474 cells were treated with 0.5 μM, 2 μM, or 5 μM of 17AAG (a positive control) or 0.5 μM, 2 μM, or 5 μM of Compound 108 or Compound 49 overnight in DMEM medium. After treatment, each cytoplasmic sample was prepared from 1×10^6 cells by incubation of cell lysis buffer (#9803, cell Signaling Technology) on ice for 10 minutes. The resulting supernatant used as the cytosol fractions were dissolved with sample buffer for SDS-PAGE and run on a SDS-PAGE gel, blotted onto a nitrocellulose membrane by using semi-dry transfer. Non-specific binding to nitrocellulose was blocked with 5% skim milk in TBS with 0.5% Tween at roomtemperature for 1 hour, then probed with anti-Her2/ErB2 mAb (rabbit IgG, #2242, Cell Signaling) and anti-Tubulin (T9026, Sigma) as housekeeping control protein. HRP-conjugated goat anti-rabbit IgG (H+L) and HRP-conjugated horse anti-mouse IgG (H+L) were used as secondary Ab (#7074, #7076, Cell Signaling) and LumiGLO reagent, 20× Peroxide (#7003, Cell Signaling) was used for visualization.

Hsp90 protein = test: Malachite Green Assay of ATPase activity of Hsp90 protein; type: biochemical
Procedure: Hsp90 protein was obtained from Stressgen (Cat#SPP-770). Assay buffer: 100 mM Tris-HCl, Ph7.4, 20 mM KCl, 6 mM MgCl2. […] Malachite green reagent was added to the reaction. […] The plate was read by an ELISA reader with an absorbance at 620 nm.

Chain of human topo II (P11388 whole entry): as above

Row | inhibition of ATPase activity of Hsp90 (Hsp90 protein; 4 μM) | Compound | inhibition of the activity of human topo II (human topo II) | inhibition of the activity of topoisomerase II (topoisomerase II) | degradation of Her2 (Her2; 0.5 μM) | degradation of Her2 (Her2; 2 μM) | degradation of Her2 (Her2; 5 μM) | inhibition of ATPase activity of Hsp90 (Hsp90 protein; 40 μM)
1 | – | C[C@@H]1C[C@H]2O[C@@H]2/C=C\C=C\C(=O)Cc2c(Cl)c(O)cc(O)c2C(=O)O1 [radicicol] | can inhibit the activity of human topo II | completely inhibits the activity of topoisomerase II | – | – | – | –
2 | significant inhibition | Oc1ccc(-c2nnc(S)n2-c2cccc3ccccc23)c(O)c1 [Compound 108, 3-(2,4-Dihydroxy-phenyl)-4-(naphthalen-1-yl)-5-mercapto-triazole] | – | – | partially degradated | partially degradated | almost completely degraded | even greater inhibition of ATPase activity of Hsp90 than geldanamycin
3 | – | CCc1cc(-c2nnc(S)n2-c2cccc3ccccc23)c(O)cc1O [Compound 49, 3-(2,4-Dihydroxy-5-ethyl-phenyl)-4-(naphthalen-1-yl)-5-mercapto-triazole] | – | – | partial degradated | complete degradation | complete degradation | –
